What was measured:
[1] = test system: WBC subpopulations; assay: Total and differential WBC counts and Treg recovery after conditioning treatment; type: in vivo, mice
[2] = test system: CD8 T cells; assay: Ki-67 proliferation of donor and recipient CD8 T cells after varlilumab; type: in vivo, mice; conditions: spleen, varlilumab pretreatment
Description: (§1) CD8 T cells on day 0. Spleens and pLNs were collected on day 14 and processed for flow cytometry analysis. […] CD8, CD4 and Treg cell counts per μl blood were depicted in FIG. 11C (n=6 mice per group).
Percentage of ki-67^+ in gated donor origin or recipient origin CD8 T cells in the spleen of the same mice as in FIGS. 11A and 11B were depicted in FIG. 12A. Percentages of Ki-67^+ cells in gated CD8 T cells in the spleen and pLNs of the same mice as in FIG. 11C were depicted in FIG. 12B.

[3] = target: T1, w.t. CD27 extracellular domain fragment (Homo sapiens, UniProt P26842); assay: ELISA binding to w.t. CD27 fragment; conditions: serially diluted supernatants
T1 construct: made in house; culture supernatant used
T1 sequence (P26842 21-130): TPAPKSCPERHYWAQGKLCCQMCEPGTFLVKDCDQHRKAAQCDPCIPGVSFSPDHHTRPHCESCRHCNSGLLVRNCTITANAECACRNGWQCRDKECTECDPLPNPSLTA
Description: CD27 extracellular domain spanning amino acid residue 1-110 w.t. sequence and R87A mutation sequence according to Kabat numbering were cloned into an expression vector fused with a human kappa chain in the N-terminus and a flag-tag in the C-terminus. The CD27 fragments were expressed by transient transfection and quantified by an ELISA measuring concentration of human kappa chain in the culture supernatant.

[4] = test system: recipient CD3 T-cells; assay: Recipient T-cell depletion after CD27 Ab pretreatment (flow cytometry); type: in vivo, mice; conditions: for recipient CD3 T-cell counts on day 0: compared to isotype control
Procedure: Spleens and pLNs were collected from one set of mice on day 0 without cell transfusion and from another set of mice 14 days post intravenous (i.v.) transfusion with 2×10^6 CFSE-labeled w.t. CD8 T-cells for the assessment of recipient cell depletion (FIG. 4A) and donor cell expansion (FIG. 4B). Percentages of recipient CD3 T-cells (CD45.1^+CD45.2^−CD3^+) and donor origin CD8 T-cells (CD45.1^−CD45.2^+CD3^+CD8^+) out of total live cells in spleens and pLNs were determined by flow cytometry and the absolute numbers of donor origin cells were calculated based on total cell counts of spleens and pLNs.
These mice were bled and then transfused with 2×10^6 CD8 T-cells on day 0. Shown are the percentages of donor origin cells out of total live cells in the spleen and pLNs after 14 days of in vivo expansion (FIG. 10A) and the percentages of CD3 T cells in recipients' blood on day 0 before transfusion (FIG. 10B). Data are from one representative experiment of two performed, n=5 mice per group, *p<0.05, **p<0.01, ***p<0.001 indicating statistical significance compared to isotype control or between groups as specified by the horizontal line.
as §1

[5] = target: T2, human CD70-Fc binding to CD27 on CD4+CD25+ Treg cells (Homo sapiens, UniProt P26842); assay: hCD70-Fc staining on hCD27+/+mCD27-/- splenocytes preincubated with Ab (ligand blocking); conditions: 10 μg Ab 30 minutes on ice, vs hIgG1 isotype control
T2 construct: from tissue; host or cells: splenocytes from hCD27+/+ mCD27-/- transgenic mice
T2 sequence (P26842 20-260): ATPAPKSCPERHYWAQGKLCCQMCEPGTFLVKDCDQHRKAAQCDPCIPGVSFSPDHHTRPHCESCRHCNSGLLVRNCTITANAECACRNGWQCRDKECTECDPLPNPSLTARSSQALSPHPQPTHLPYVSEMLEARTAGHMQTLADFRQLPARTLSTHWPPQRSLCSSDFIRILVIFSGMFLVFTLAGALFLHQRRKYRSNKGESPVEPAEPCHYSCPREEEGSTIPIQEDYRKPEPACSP
Procedure: Splenocytes from hCD27^+/+mCD27^−/− mice were incubated with 10 μg Ab as indicated for 30 minutes on ice and then stained with a fluorescently labeled human CD70-Fc fusion protein (0.5 μg) and Abs for cell surface markers. Shown is a histogram of hCD70-Fc staining on gated CD4^+CD25^+ Treg cells.

[6] = test system: donor origin CD8 T-cells; assay: In vivo expansion of adoptively transferred donor T-cells in pretreated recipient mice; conditions: for donor CD8 T-cell expansion: 14 days post transfusion
[7] = test system: CD8, CD4 T-cells and Treg (CD4+Foxp3+); assay: T-cell depletion in spleen and pLNs of human CD27 transgenic mice (flow cytometry); type: in vivo
Description: Spleens and pLNs were collected 7 days later and processed for flow cytometry analysis.
The same preparations of splenocytes and pLNs cells as in Example 1 were stained for CD8, CD4 and Foxp3.

[8] = test system: E.G7 cells; assay: E.G7 tumor model with OT-I T-cell adoptive therapy; type: in vivo, mice

varlilumab: fully human monoclonal IgG1 antibody binding CD27; heavy/light chains SEQ ID NO: 68 and 69
percentage of Treg cells out of total live cells in blood, spleen and pLNs on day 14 ([1]; 14 days post cell transfer): remains low | total and differential counts of WBC per μl blood on day of adoptive transfer (day 0) ([1]; varlilumab 300 μg day -14 and -2, Cy 1 mg and Flu 0.1 mg day -4, -3, -2, hCD27+/+mCD27-/- mice): only depletes T-cells with the most reduction in Treg population and does not attack myeloid cells, B-cells and NK cells | CD8 T-cell proliferation (Ki-67+) donor origin vs recipient origin cells ([2]; hCD27+/+mCD27-/- mice): significantly higher in donor origin cells | CD8 T-cell proliferation (Ki-67+) donor origin vs recipient origin cells ([2]; hCD27+/+mCD27wt mice): no difference | binding to w.t. CD27 fragment (OD450) [3]: recognizes w.t. CD27 | T cell reduction in the two strains of recipients (CD8, CD4 and Treg counts per μl blood) ([4]; 300 μg day 0, blood 14 days later, hCD27+/+mCD27-/- vs hCD27+/+mCD27wt): same extent of T cell reduction | recipient CD3 T-cell counts on day 0 ([4]; 1 dose on day -14): reduced to the same extent | recipient CD3 T-cell counts on day 0 ([4]; 2 doses on day -14 and -2): reduced to the same extent | recipient CD3 T-cell counts on day 0 ([4]; Ab on day -2 only): no significant reduction | recipient CD3 T-cell counts by day 14 compared to day 0 ([4]; Ab on day -14 only): remained the same | recipient CD3 T-cell counts by day 14 compared to day 0 ([4]; varlilumab on day -2 only): further decreased | recipient CD3 T-cell counts by day 14 compared to day 0 ([4]; varlilumab on day -14 and -2): further decreased | hCD70-Fc staining on gated CD4+CD25+ Treg cells (ligand blocking) [5]: no hCD70 binding detected | percentage of donor-origin CD8 T-cells out of total live cells, time course ([6]; 200 μg day -7 and -2, spleens and pLNs day 7, 14 and 21, vs hIgG1): long-lasting accumulation of donor-origin CD8 T-cells | transferred cell expansion in recipients lacking CD27 signaling ([6]; 200 μg days -7 and -2, hCD27+/+mCD27-/- recipients, day 14): remarkable transferred cell expansion | expansion of transfused CD8 T-cells compared to 2C2 or varlimut ([6]; 300 μg days -14 and -2, hCD27+/+mCD27-/- mice, 14 days): greater expansion of transfused CD8 T-cells | donor CD8 T-cell expansion ([6]; 300 μg i.p. on day -2 only): minimal expansion | donor CD8 T-cell expansion ([6]; 300 μg i.p. on day -14 and -2, hCD27+/+mCD27-/- mice): greatest expansion | donor CD8 T-cell expansion ([6]; 300 μg i.p. on day -14 only): median level of expansion | donor cell expansion (donor origin CD8 T-cells in blood, spleen and pLNs) ([6]; Example 14 regimens, day 14, Cy and Flu vs control mice, varlilumab vs Cy and Flu): further increased | CFSE dilution in donor-origin CD8 T-cells ([6]; pretreatment day -14 and -2, vs hIgG1): enhanced proliferation | percentage and absolute numbers of Treg in peripheral lymph organs ([7]; 0.2 mg i.p., 7 days, spleen and pLNs, vs isotype control): reduced | total T-cells (CD8 and CD4), percentage out of total live cells and absolute numbers ([7]; 0.2 mg i.p., spleens and pLNs 7 days later, hCD27+/-mCD27wt mice, vs isotype control): reduced | pattern of T-cell deletion among T-cell subsets ([7]; Examples 1 and 2 together): preferentially on Treg and secondarily on CD4-Th, while the least reduction is on CD8 T-cells | conditioning effect of one delayed dose alone ([8]; 300 μg day 14 only, OT-I day 16, survival): no conditioning effect by itself | antitumor efficacy of varlilumab pretreatment followed by OT-I T-cell transfer ([8]; 300 μg day -2 and 5, OT-I day 7, tumor growth and survival): stronger antitumor efficacy than varlilumab alone | antitumor efficacy of OT-I T-cells compared to hIgG1 isotype control ([8]; delayed therapy: 300 μg day 6 and 14, OT-I day 16): enhances antitumor efficacy of OT-I T-cells | OT-I T-cells antitumor activity compared to hIgG1 control ([8]; varlilumab 300 μg day 7 and 14, or Cy 1 mg and Flu 0.1 mg day 13 and 14, OT-I day 16): facilitates OT-I T-cells antitumor activity | effect of one delayed dose combined with Cy and Flu on OT-I T-cells antitumor activity ([8]; varlilumab 300 μg day 14 plus Cy 1 mg and Flu 0.1 mg day 13 and 14, survival): synergizes
